Test results taken from patent US20160158236A1, “PHARMACEUTICAL COMPOSITION COMPRISING A TRPA1 ANTAGONIST AND A STEROID” (GLENMARK PHARMACEUTICALS S.A., priority 2011, published 2016).
pIC50: −log10 of the molar value.

Tests used:
[1] = tested on: ovalbumin sensitized female Balb/C mice; test: Ovalbumin induced inflammation in ovalbumin sensitized mice (Compound 52 and prednisolone), BAL cell counts; assay type: in vivo; conditions: 1 mg/Kg p.o. (combination: 1 mg/Kg of each compound); BAL 24 hours after ovalbumin challenge
Method: Sensitized mice were randomly assigned to different treatment groups. […] Animals were administered Compound 52 orally 24 hrs before first ovalbumin challenge and 2 hrs before ovalbumin challenge from Day-11 to 13. Animals were administered Prednisolone orally 24 hrs before first ovalbumin challenge and 2 hrs before ovalbumin challenge from Day-11 to 13. The animals were divided into groups as per Table 2.
Broncho Alveolar Lavage (BAL) was performed at 24 hours after challenge with ovalbumin. Animals were anesthetized with an overdose of urethane, trachea was exposed and BAL was performed 4 times using 0.3 mL PBS. All aspirates of BAL were pooled and total number of cells determined using a hemocytometer. The BAL was centrifuged, and the cell pellet was used for preparation of smears. Slides were stained with Giemsa stain and a differential cell count of 500 cells based on standard morphology was performed manually.
Calculations: The total number of eosinophils in each BAL sample was calculated using the formula: […]
Percent inhibition of eosinophils was calculated using the following formula: […]

human TRPA1 receptor = biological target: T1, human TRPA1 receptor (Homo sapiens, UniProt O75762); test: Inhibition of AITC induced cellular uptake of radioactive calcium in human TRPA1 expressing CHO cells; assay type: cell-based; conditions: read-out: hTRPA1 IC50 values
T1 construct: expressed in transfected cells; host or cells: CHO cells
Method: Test compound solution is prepared in a suitable solvent. Human TRPA1 expressing CHO cells are grown in suitable medium. Cells are treated with test compounds followed by addition of AITC. Cells are washed, lysed and the radioactivity in the lysate is measured in Packard Top count after addition of liquid scintillant.
The concentration response curves for compounds are plotted as a % of maximal response obtained in the absence of test antagonist, and the IC50 values are calculated from such concentration response curve by nonlinear regression analysis using GraphPad PRISM software.

T1 sequence (O75762 whole entry): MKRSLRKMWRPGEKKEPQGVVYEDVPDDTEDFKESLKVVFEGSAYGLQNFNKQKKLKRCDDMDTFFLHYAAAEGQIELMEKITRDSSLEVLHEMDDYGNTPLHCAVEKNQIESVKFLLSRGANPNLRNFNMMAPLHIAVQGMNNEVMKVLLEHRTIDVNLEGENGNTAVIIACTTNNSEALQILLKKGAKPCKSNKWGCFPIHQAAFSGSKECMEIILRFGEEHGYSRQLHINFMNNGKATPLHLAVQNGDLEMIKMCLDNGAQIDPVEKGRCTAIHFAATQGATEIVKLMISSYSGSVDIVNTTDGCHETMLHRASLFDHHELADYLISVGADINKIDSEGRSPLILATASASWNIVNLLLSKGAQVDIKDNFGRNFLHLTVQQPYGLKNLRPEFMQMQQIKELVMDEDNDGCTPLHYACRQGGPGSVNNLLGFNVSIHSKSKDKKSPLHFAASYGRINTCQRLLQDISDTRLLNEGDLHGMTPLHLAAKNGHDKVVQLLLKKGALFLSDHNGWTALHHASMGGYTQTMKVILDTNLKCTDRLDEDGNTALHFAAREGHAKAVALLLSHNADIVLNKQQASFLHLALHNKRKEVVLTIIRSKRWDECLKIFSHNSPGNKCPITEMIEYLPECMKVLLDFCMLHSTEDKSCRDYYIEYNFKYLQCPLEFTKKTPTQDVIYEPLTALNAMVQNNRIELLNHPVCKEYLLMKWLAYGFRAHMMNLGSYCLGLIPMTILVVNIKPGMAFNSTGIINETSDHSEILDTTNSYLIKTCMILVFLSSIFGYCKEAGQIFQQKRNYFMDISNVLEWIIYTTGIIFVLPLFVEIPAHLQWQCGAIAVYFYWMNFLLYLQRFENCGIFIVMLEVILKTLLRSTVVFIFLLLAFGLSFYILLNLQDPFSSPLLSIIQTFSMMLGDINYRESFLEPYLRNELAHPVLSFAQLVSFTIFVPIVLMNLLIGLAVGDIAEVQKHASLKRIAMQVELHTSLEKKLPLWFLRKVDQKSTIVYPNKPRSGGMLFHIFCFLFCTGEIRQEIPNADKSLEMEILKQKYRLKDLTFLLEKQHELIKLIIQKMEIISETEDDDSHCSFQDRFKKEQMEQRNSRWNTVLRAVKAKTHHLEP

C[C@]12C=CC(=O)C=C1CC[C@@H]1[C@@H]2[C@@H](O)C[C@@]2(C)[C@H]1CC[C@]2(O)C(=O)CO [Prednisolone, reference compound]
% Inhibition of cell in BALf [1]: 21%
% Inhibition of eosinophils in BALf [1]: 24%
Total cell number in BALf [1]: 10.8 ± 1.0
Total eosinophils in BALf [1]: 5.6 ± 0.7

Cn1c(=O)c2c(CC(=O)Nc3nc(-c4ccc(F)c(C(F)(F)F)c4F)cs3)csc2n(C)c1=O [Compound 52]
% Inhibition of cell in BALf [1]: 10%
% Inhibition of eosinophils in BALf [1]: 21%
Total cell number in BALf [1]: 12.2 ± 0.5
Total eosinophils in BALf [1]: 5.8 ± 0.5

CC(C)C(N)C(=O)OCn1c(-c2ccc(F)c(C(F)(F)F)c2F)csc1=NC(=O)Cc1csc2c1c(=O)n(C)c(=O)n2C (stereo not drawn) [Compound 97]
pIC50 (human TRPA1 receptor): 7.66
